Calls of active or inactive are those of the source. The rule behind the calls is not given here. Where only a bound is given, the exact number is not on record here.

The target in experiment [1] is T1, Quinolone resistance protein NorA (Staphylococcus aureus) (UniProt P0A0J7).
T1 sequence (whole entry): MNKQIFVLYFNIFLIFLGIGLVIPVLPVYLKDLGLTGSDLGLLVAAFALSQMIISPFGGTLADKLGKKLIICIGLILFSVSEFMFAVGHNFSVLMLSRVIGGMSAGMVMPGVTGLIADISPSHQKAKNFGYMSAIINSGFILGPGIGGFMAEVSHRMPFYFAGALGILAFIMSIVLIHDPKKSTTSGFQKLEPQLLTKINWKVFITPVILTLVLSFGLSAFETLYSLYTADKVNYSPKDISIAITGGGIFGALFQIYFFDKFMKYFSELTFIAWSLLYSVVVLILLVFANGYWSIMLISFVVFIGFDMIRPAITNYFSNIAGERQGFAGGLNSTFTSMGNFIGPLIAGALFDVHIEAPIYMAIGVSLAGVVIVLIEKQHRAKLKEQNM
Nature of the experiment: Inhibition of NorA efflux pump overexpressed in Staphylococcus aureus 1199B assessed as fold reduction in ciprofloxacin MIC at 12.5 ug/ml measured after 24 hrs by broth checkerboard method.

Experiment [2] has as its system Staphylococcus aureus. Nature of the experiment: Antibacterial activity against Staphylococcus aureus 1199B overexpressing NorA efflux pump measured after 24 hrs by broth checkerboard method. It is filed as functional.
Experiment [3] addresses T1, Quinolone resistance protein NorA (Staphylococcus aureus). Nature of the experiment: Inhibition of NorA efflux pump overexpressed in Staphylococcus aureus 1199B assessed as concentration required for four-fold reduction in ciprofloxacin MIC measured after 24 hrs by broth checkerboard method relative to control.
The test system of experiment [4] is Staphylococcus aureus. Kind of experiment: Antibacterial activity against wild-type Staphylococcus aureus 1199 expressing NorA efflux pump measured at every 3 mins interval for 30 mins by fluorescence analysis. The format is functional.
For experiment [5], the target named is T1, Quinolone resistance protein NorA (Staphylococcus aureus). Kind of experiment: Inhibition of NorA efflux pump overexpressed in Staphylococcus aureus 1199B assessed as fold reduction in ethidium bromide MIC at 12.5 ug/ml measured at every 3 mins interval for 30 mins by fluorescence analysis.
For experiment [6] the target is unchanged. Kind of experiment: Inhibition of NorA efflux pump overexpressed in Staphylococcus aureus 1199B assessed as concentration required for four-fold reduction in ethidium bromide MIC measured at every 3 mins interval for 30 mins by fluorescence analysis.
Experiment [7] has the same target. Nature of the experiment: Inhibition of NorA efflux pump in Staphylococcus aureus 1199 assessed as fold reduction in ethidium bromide MIC at […] measured at every 3 mins interval for 30 mins by fluorescence analysis. The settings on record: 12.5 ug/ml.
Experiment [8] relates to Staphylococcus aureus. Kind of experiment: Antibacterial activity against Staphylococcus aureus 1199B overexpressing NorA efflux pump measured at every 3 mins interval for 30 mins by fluorescence analysis. The format is functional.
In experiment [9] the target is T1, Quinolone resistance protein NorA (Staphylococcus aureus). Kind of experiment: Inhibition of NorA efflux pump in Staphylococcus aureus 1199 assessed as concentration required for four-fold reduction in ethidium bromide MIC measured at every 3 mins interval for 30 mins by fluorescence analysis.
The target is the same in experiment [10]. Nature of the experiment: Inhibition of NorA efflux pump overexpressed in Staphylococcus aureus 1199B assessed as increase in EtBr accumulation at 50 ug/ml measured after 30 mins by fluorescence analysis.
Experiment [11] shares this target. Nature of the experiment: Inhibition of NorA efflux pump overexpressed in Staphylococcus aureus 1199B assessed as reduction in EtBr efflux measured over 30 mins by fluorescence analysis.
Experiment [12] shares this target. Nature of the experiment: Potency index, ratio of SK-20 MEC to compound MEC for Staphylococcus aureus 1199B overexpressing NorA efflux pump assessed as concentration required for four-fold reduction in ciprofloxacin MIC.

Broadly, the MIC is the lowest concentration found to suppress growth. With `CCC(/C=C/C(=O)O)=C\c1ccc2c(c1)OCO2`, in [1], the fold change (FC) was found to be 0. Besides, the MIC with Staphylococcus aureus [2] was over 50 µg/mL. In addition, the MEC in [3] was over 50 µg/mL.

In the case of `COC(=O)[C@@H](NC(=O)/C=C/C=C/c1ccc2c(c1)OCO2)C(C)(C)C`, the MIC in the experiment with Staphylococcus aureus [4], in the experiment with Staphylococcus aureus [2] and in the experiment on Staphylococcus aureus [8] was over 50 µg/mL throughout. The fold change (FC) was found to be 4 in [1], 2 in experiment [5] and 0 in experiment [7]. In addition, the values for the MEC in [6], in [3] and in experiment [9] were 50 µg/mL, 12.5 µg/mL and 50 µg/mL, respectively.

As for `CCC(/C=C/C(=O)N[C@@H](Cc1c[nH]c2ccccc12)C(=O)OC)=C\c1ccc2c(c1)OCO2`, in the experiment with Staphylococcus aureus [4], the MIC is over 50 µg/mL.

Consider `CCCCC(=O)NC1(CC(=O)NNc2ccccc2)CCN(C(=O)/C=C/C(=C/c2ccc3c(c2)OCO3)CC)CC1`, for which the MIC in the experiment on Staphylococcus aureus [4], in the experiment with Staphylococcus aureus [2] and with Staphylococcus aureus [8] was over 50 µg/mL each time. Further, the fold change (FC) came out at 4 in [1], 8 in experiment [5] and 4 in experiment [7]. Further, in experiment [10], the inhibition result is “Active”. Besides, the inhibition result in experiment [11] is “Dose-dependent effect”. For the same compound, the MEC in experiment [6] was 3.12 µg/mL; in experiment [3], 6.25 µg/mL; in [9], 12.5 µg/mL.

For `COC(=O)CC1(NC(=O)/C=C/C=C/c2ccc3c(c2)OCO3)CCC(C(C)(C)C)CC1` (stereo unspecified), in experiment [1], the fold change (FC) came to 0. Moreover, in the experiment on Staphylococcus aureus [2], the MIC is over 50 µg/mL. Moreover, the MEC in [3] was over 50 µg/mL.

With `CCC(/C=C/C(=O)NC1(CC(=O)OC)CCC(CC)CC1)=C\c1ccc2c(c1)OCO2` (stereo unspecified), the fold change (FC) in [1] came out at 0. Besides, the minimum inhibitory concentration (MIC) in the experiment with Staphylococcus aureus [2] is over 50 µg/mL. In experiment [3], the MEC was over 50 µg/mL.

`CCC(/C=C/C(=O)N[C@H](C(=O)OC)C(C)(C)C)=C\c1ccc2c(c1)OCO2`: the MIC against Staphylococcus aureus [4], in the experiment with Staphylococcus aureus [2] and in the experiment on Staphylococcus aureus [8] was over 50 µg/mL throughout. The results for the fold change (FC) in experiment [1], in [5] and in experiment [7] were 4, 2 and 2, respectively. The results for the MEC in experiment [6], in experiment [3] and in [9] were 25 µg/mL, 12.5 µg/mL and over 50 µg/mL, respectively.

On to `CCC(/C=C/C(=O)N1CCC(CC(=O)NC(C)(C)C(=O)OC)(NC(C)=O)CC1)=C\c1ccc2c(c1)OCO2`, for which, in [1], the fold change (FC) stood at 2. Besides, the MIC with Staphylococcus aureus [2] was over 50 µg/mL. Further, the MEC in experiment [3] worked out at 25 µg/mL.

As for `CCC(/C=C/C(=O)NCC1(CC(=O)OC)CCCCC1)=C\c1ccc2c(c1)OCO2`, the fold change (FC) in experiment [1] was determined as 2. Also, the MIC in the experiment with Staphylococcus aureus [2] was over 50 µg/mL. The MEC in [3] came to 25 µg/mL.

On to `CCC(/C=C/C(=O)N1CCCCC1)=C\c1ccc2c(c1)OCO2`, for which the MIC in the experiment with Staphylococcus aureus [4], with Staphylococcus aureus [2] and against Staphylococcus aureus [8] was over 50 µg/mL in each case. Also, the fold change (FC) was determined as 4 in experiment [1], 4 in [5] and 0 in experiment [7]. The MEC is 12.5 µg/mL in [6], 12.5 µg/mL in experiment [3] and 25 µg/mL in [9].

In the case of `CCC1CCC(CC(=O)OC)(NC(=O)/C=C/C=C/c2ccc3c(c2)OCO3)CC1` (stereo unspecified), the fold change (FC) in [1] was found to be 0. Moreover, the MIC with Staphylococcus aureus [2] is over 50 µg/mL. Further, in experiment [3], the MEC stood at 50 µg/mL.

For the compound `CCC(/C=C/C(=O)NC1(CC(=O)OC)CCC(C(C)(C)C)CC1)=C\c1ccc2c(c1)OCO2` (stereo unspecified), the fold change (FC) in [1] turned out to be 0. For the same compound, in the experiment with Staphylococcus aureus [2], the MIC is over 50 µg/mL. In [3], the MEC is over 50 µg/mL.

With `CCC(/C=C/C(=O)N1CCC[C@@H]1C(=O)OC)=C\c1ccc2c(c1)OCO2`, the MIC in the experiment with Staphylococcus aureus [4], with Staphylococcus aureus [2] and in the experiment with Staphylococcus aureus [8] was over 50 µg/mL each time. Also, the fold change (FC) in [1] was 16; in experiment [5], 4; in [7], 2. Besides, in [10], the inhibition result is “Active”. For the same compound, in experiment [11], the inhibition result is “Dose-dependent effect”. Besides, the MEC came out at 3.12 µg/mL in [6], 3.12 µg/mL in experiment [3] and 25 µg/mL in experiment [9]. The Ratio in experiment [12] came out at 4.

On to `CCC(/C=C/C(=O)N[C@H](C(=O)OC)C(C)C)=C\c1ccc2c(c1)OCO2`, for which the fold change (FC) in experiment [1] is 0. In the experiment on Staphylococcus aureus [2], the MIC is over 50 µg/mL. Moreover, the MEC in experiment [3] was over 50 µg/mL.

Take `O=C(/C=C/C=C/c1ccc2c(c1)OCO2)N1CCCCC1` [PIPERINE]: the MIC in the experiment with Staphylococcus aureus [4], in the experiment on Staphylococcus aureus [2] and in the experiment on Staphylococcus aureus [8] was over 50 µg/mL each time. Also, the fold change (FC) in experiment [1] is 0; in experiment [5], 2; in [7], 0. Moreover, the MEC in experiment [3] and in [9] was over 50 µg/mL throughout.

Consider `CCC(/C=C/C(=O)N[C@@H](C)C(=O)OC)=C\c1ccc2c(c1)OCO2`, for which the fold change (FC) in experiment [1] came to 0. For the same compound, in the experiment on Staphylococcus aureus [2], the MIC is over 50 µg/mL. In addition, the MEC in [3] was over 50 µg/mL.

Consider `COC(=O)CC1(NC(=O)/C=C/C=C/c2ccc3c(c2)OCO3)CCCCC1`, for which the fold change (FC) in experiment [1] amounted to 0. For the same compound, in the experiment on Staphylococcus aureus [2], the MIC was over 50 µg/mL. Also, the MEC in experiment [3] was over 50 µg/mL.

Consider `O=C(O)/C=C/C=C/c1ccc2c(c1)OCO2` [PIPERIC ACID], for which the fold change (FC) in [1] is 0. In addition, the MIC with Staphylococcus aureus [2] was over 50 µg/mL. Moreover, in [3], the MEC is over 50 µg/mL.

In the case of `CCC(/C=C/C(=O)NC1(CC(=O)OC)CCCCC1)=C\c1ccc2c(c1)OCO2`, in experiment [1], the fold change (FC) is 2. Also, the MIC with Staphylococcus aureus [2] was over 50 µg/mL. In experiment [3], the MEC is 50 µg/mL.

For the compound `COC(=O)CC1(CNC(=O)/C=C/C=C/c2ccc3c(c2)OCO3)CCCCC1`, the MIC in the experiment with Staphylococcus aureus [4], in the experiment on Staphylococcus aureus [2] and in the experiment on Staphylococcus aureus [8] was over 50 µg/mL each time. The fold change (FC) turned out to be 4 in experiment [1], 2 in experiment [5] and 0 in experiment [7]. Also, the figures for the MEC in experiment [6], in experiment [3] and in [9] were 50 µg/mL, 12.5 µg/mL and 25 µg/mL, respectively.

Turning to `CCC(/C=C/C(=O)N[C@@H](CC(C)C)C(=O)OC)=C\c1ccc2c(c1)OCO2`, the fold change (FC) in [1] came to 0. In the experiment with Staphylococcus aureus [2], the MIC was over 50 µg/mL. In addition, the MEC in experiment [3] was over 50 µg/mL.

Turning to `CCC(/C=C/C(=O)N[C@@H](Cc1ccccc1)C(=O)OC)=C\c1ccc2c(c1)OCO2`, the minimum inhibitory concentration (MIC) with Staphylococcus aureus [4], with Staphylococcus aureus [2] and with Staphylococcus aureus [8] was over 50 µg/mL in each case. Moreover, the fold change (FC) in experiment [1] worked out at 2; in [5] it was 4; in experiment [7] it was 2. Moreover, the values for the MEC in [6], in experiment [3] and in [9] were 6.25 µg/mL, 25 µg/mL and over 50 µg/mL, respectively.

The values above are taken from ChEMBL document CHEMBL4477264, “Amino acid amides of piperic acid (PA) and 4-ethylpiperic acid (EPA) as NorA efflux pump inhibitors of Staphylococcus aureus” (2016).
